Experimental data from paper doi:10.1101/2020.03.02.973636v3 (biorxiv, 2020).

Legend:
[1] = target: T1, HDAC2 (Homo sapiens, UniProt Q92769); test: biolayer interferometry, […] global fit; assay type: binding
[2] = target: T2, HDAC1 (Homo sapiens, UniProt Q13547); test: biochemical; conditions: read-out: ka (1/Ms)
[3] = target: T1, HDAC2; test: biochemical; conditions: read-out: kdis (1/s)
[4] = target: T3, HDAC8 (Homo sapiens, UniProt Q9BY41); test: biolayer interferometry, […] global fit; assay type: binding
T3 sequence (Q9BY41 1-377): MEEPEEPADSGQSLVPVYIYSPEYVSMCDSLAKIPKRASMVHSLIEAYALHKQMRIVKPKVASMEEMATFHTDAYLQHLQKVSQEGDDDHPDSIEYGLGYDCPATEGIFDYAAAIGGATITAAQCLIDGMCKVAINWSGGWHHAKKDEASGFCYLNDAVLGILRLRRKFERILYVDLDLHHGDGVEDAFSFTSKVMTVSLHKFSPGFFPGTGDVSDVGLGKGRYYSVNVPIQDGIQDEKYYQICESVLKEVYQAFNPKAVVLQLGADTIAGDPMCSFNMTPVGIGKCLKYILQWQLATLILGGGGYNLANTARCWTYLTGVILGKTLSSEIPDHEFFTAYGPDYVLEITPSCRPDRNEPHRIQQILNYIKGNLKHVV

[5] = target: T1, HDAC2; test: biochemical; conditions: read-out: ka (1/Ms)
[6] = target: T2, HDAC1; test: biolayer interferometry, […] global fit; assay type: binding
[7] = target: T3, HDAC8; test: biochemical; conditions: read-out: ka (1/Ms)
[8] = target: T2, HDAC1; test: biochemical
[9] = target: T3, HDAC8; test: biochemical; conditions: read-out: kdis (1/s)
[10] = target: T3, HDAC8; test: RapidFire mass spectrometry deacetylase assay; assay type: biochemical
[11] = target: T2, HDAC1; test: biochemical; conditions: read-out: kdis (1/s)

T2 sequence (Q13547 whole entry): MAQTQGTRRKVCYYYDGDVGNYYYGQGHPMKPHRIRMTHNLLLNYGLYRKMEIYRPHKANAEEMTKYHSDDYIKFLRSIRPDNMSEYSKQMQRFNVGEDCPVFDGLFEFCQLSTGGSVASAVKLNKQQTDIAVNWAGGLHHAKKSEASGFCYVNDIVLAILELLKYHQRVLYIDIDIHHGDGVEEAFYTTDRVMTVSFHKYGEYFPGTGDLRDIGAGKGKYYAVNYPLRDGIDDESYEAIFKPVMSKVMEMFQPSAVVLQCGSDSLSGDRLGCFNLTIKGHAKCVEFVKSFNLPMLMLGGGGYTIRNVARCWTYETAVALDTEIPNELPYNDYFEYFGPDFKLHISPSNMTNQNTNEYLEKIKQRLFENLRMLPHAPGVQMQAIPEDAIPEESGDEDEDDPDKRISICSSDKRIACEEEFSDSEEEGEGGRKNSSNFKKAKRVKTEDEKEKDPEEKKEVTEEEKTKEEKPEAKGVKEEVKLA
T1 sequence (Q92769 whole entry): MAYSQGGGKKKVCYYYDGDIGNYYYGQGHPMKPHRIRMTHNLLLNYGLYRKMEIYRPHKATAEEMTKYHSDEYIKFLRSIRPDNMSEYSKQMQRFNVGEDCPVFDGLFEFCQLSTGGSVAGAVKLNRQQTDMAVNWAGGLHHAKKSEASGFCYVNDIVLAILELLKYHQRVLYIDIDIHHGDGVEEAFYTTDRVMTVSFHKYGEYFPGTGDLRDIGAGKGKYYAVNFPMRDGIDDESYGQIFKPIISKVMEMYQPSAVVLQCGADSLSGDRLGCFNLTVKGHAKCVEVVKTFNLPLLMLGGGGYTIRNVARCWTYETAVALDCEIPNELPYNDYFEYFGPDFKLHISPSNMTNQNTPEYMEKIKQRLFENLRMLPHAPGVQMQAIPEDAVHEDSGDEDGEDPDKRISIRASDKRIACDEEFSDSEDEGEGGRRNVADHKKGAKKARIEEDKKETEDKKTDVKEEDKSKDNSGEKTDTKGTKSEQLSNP

Compound: O=C(c1cc(O)c(O)c(O)c1)c1ccc(O)c(O)c1O [Exifone, 2,3,3’,4,4’,5’-hexahydroxybenzophenone]
- Kd [1]: 142.8 ± 1 nM
- kon [2]: 15500 M⁻¹ s⁻¹
- koff [3]: 0.00125 s⁻¹
- Kd [4]: 257.9 ± 1.7 nM
- kon [5]: 8740 M⁻¹ s⁻¹
- Kd [6]: 94.9 ± 0.8 nM
- kon [7]: 5050 M⁻¹ s⁻¹
- EC50 [8]: 160 nM
- koff [9]: 0.0013 s⁻¹
- EC50 [10]: 270 nM
- koff [11]: 0.00134 s⁻¹
